From ChEMBL document CHEMBL1201862, “PubChem BioAssay data set” (2004)
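All cell lines were grown in 96-well plates and treated with compound for 48 hours. GI50: concentration for 50% inhibition of growth.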 The source made the active and inactive calls. Rule as the data show it: active = GI50 up to about 1.1 µM and inactive = higher.

Columns and labels:
Experiment in all cases: NCI-60 cell line screen, 48 h
HT-29 = tested on: HT-29
SN12C = tested on: SN12C
BT-549 = tested on: BT-549
MCF7 = tested on: MCF7
A498 = tested on: A498
UO-31 = tested on: UO-31
HOP-62 = tested on: HOP-62
MOLT-4 = tested on: MOLT-4
OVCAR-3 = tested on: OVCAR-3
SK-OV-3 = tested on: SK-OV-3
NCI/ADR-RES = tested on: NCI/ADR-RES
NCI-H522 = tested on: NCI-H522
786-0 = tested on: 786-0
NCI-H460 = tested on: NCI-H460
CAKI-1 = tested on: CAKI-1
HCT-15 = tested on: HCT-15
MDA-N = tested on: MDA-N
T47D = tested on: T47D
K562 = tested on: K562
SK-MEL-5 = tested on: SK-MEL-5

| Compound | GI50 (HT-29) | GI50 (SN12C) | GI50 (BT-549) | GI50 (MCF7) | GI50 (A498) | GI50 (UO-31) | GI50 (HOP-62) | GI50 (MOLT-4) | GI50 (OVCAR-3) | GI50 (SK-OV-3) | GI50 (NCI/ADR-RES) | GI50 (NCI-H522) | GI50 (786-0) | GI50 (NCI-H460) | GI50 (CAKI-1) | GI50 (HCT-15) [µM] | GI50 (MDA-N) | GI50 (T47D) | GI50 (K562) | GI50 (SK-MEL-5) |
| --- | --- | --- | --- | --- | --- | --- | --- | --- | --- | --- | --- | --- | --- | --- | --- | --- | --- | --- | --- | --- |
| CCOC(=O)c1ccc(/N=C/C=C(\Nc2ccc(C(=O)OCC)cc2)C23CC4CC(CC(C4)C2)C3)cc1 | 26.5 µM (inactive) | 53.2 µM (inactive) | > 100 µM (inactive) | 43.9 µM (inactive) | 38.4 µM (inactive) | 3.43 µM (inactive) | > 100 µM (inactive) | < 0.01 µM (active) | > 100 µM (inactive) | > 100 µM (inactive) | > 100 µM (inactive) | > 100 µM (inactive) | 56.1 µM (inactive) | 42.2 µM (inactive) | > 100 µM (inactive) | 92.3 | 61.1 µM (inactive) | 18.3 µM (inactive) | 4.05 µM (inactive) | 30.6 µM (inactive) |
| O=C(O)c1cccc(Nc2c(C(=O)O)cccc2[N+](=O)[O-])c1 | > 100 µM (inactive) | > 100 µM (inactive) | > 100 µM (inactive) | > 100 µM (inactive) | > 100 µM (inactive) | > 100 µM (inactive) | > 100 µM (inactive) | > 100 µM (inactive) | > 100 µM (inactive) | > 100 µM (inactive) | > 100 µM (inactive) | > 100 µM (inactive) | > 100 µM (inactive) | > 100 µM (inactive) | > 100 µM (inactive) | > 100 | > 100 µM (inactive) | > 100 µM (inactive) | > 100 µM (inactive) | > 100 µM (inactive) |
| COc1cc(/C=C2\C(=O)N(c3ccccc3)C(c3ccccc3)S2(=O)=O)cc(OC)c1OC (stereo not given) | 19.5 µM (inactive) | 39.4 µM (inactive) | 35.6 µM (inactive) | 31.2 µM (inactive) | > 100 µM (inactive) | 22.9 µM (inactive) | 70.6 µM (inactive) | 34 µM (inactive) | 36 µM (inactive) | 62.7 µM (inactive) | 28.4 µM (inactive) | 29.7 µM (inactive) | 69.5 µM (inactive) | 54 µM (inactive) | 88.7 µM (inactive) | 37.9 | 16.4 µM (inactive) | 36.1 µM (inactive) | 27 µM (inactive) | 17.6 µM (inactive) |
| O=C1OC(C2Cc3cc4c(cc3C2=O)CCC4)c2ccccc21 (stereo not given) | 30.6 µM (inactive) | 63 µM (inactive) | > 10 µM (inactive) | 41.5 µM (inactive) | 25.9 µM (inactive) | 55.6 µM (inactive) | 65 µM (inactive) | 23.7 µM (inactive) | 77.6 µM (inactive) | 21.7 µM (inactive) | 63.4 µM (inactive) | 50.4 µM (inactive) | 80 µM (inactive) | 40 µM (inactive) | > 100 µM (inactive) | 34.3 | 75.3 µM (inactive) | 71.3 µM (inactive) | 33.6 µM (inactive) | 21.3 µM (inactive) |
| O=C1/C(=C/C=C/c2ccccc2)N=C(c2ccccc2)N1c1ccc(S(=O)(=O)Nc2nccs2)cc1 | 23 µM (inactive) | 30 µM (inactive) | 19.8 µM (inactive) | 18.7 µM (inactive) | 32.1 µM (inactive) | 15.6 µM (inactive) | 39.3 µM (inactive) | 50.1 µM (inactive) | 21.1 µM (inactive) | 28.1 µM (inactive) | > 100 µM (inactive) | 14.3 µM (inactive) | 34.8 µM (inactive) | 25.8 µM (inactive) | 65.9 µM (inactive) | 24.4 | 27.7 µM (inactive) | 27.6 µM (inactive) | 40.2 µM (inactive) | 20.6 µM (inactive) |
